Two compounds from patent publication US20190328819A1 (priority 2016, published 2019) can be followed below.

In data set [1] the test system is human dermal fibroblasts. Nature of the data set: Exposure to Cd(II), fibroblast survival. The data set is classed as cell-based.
The test system of data set [2] is human dermal fibroblasts. Nature of the data set: Exposure to As(III) (sodium arsenite), fibroblast survival. The data set is classed as cell-based. The note with it: 9 mM sodium arsenite, 24 hours, no EDA. As for the experimental part: Deschampsia antarctica extract (EDA): In experiments with fibroblasts, lyophilized EDA batch 051214 was used. The product was dissolved in a complete DMEM medium at a concentration of 5 mg/ml, stirred in a magnetic stirrer for 30 minutes and filtered through a 0.2 μm sterile cellulose acetate filter (Minisart, Sartorius).
As(III): sodium arsenite (NaAsO2) at a final concentration of 9 mM was dissolved in phenol red-free DMEM medium and filtered through a 0.2 μm sterile cellulose acetate filter (Minisart, Sartorius).
The cells used were human dermal fibroblasts isolated from the outer area of the retroauricular flap obtained from different healthy voluntary donors and preserved in liquid N2. The experiments used cells grown in culture flasks containing DMEM supplemented with 2 mM glutamine, […], 10% fetal bovine serum, in a Heraeus oven with an atmosphere of 7% CO2 and 93% humidified air at 37° C., until reaching about 90% of confluence, after which a new pass was performed by means of trypsinization. […]
The plates were washed twice with Hank's. […] It was carefully stirred in a plate stirrer and the absorbance at 550 nm was read in a BMG Fluostar Optima spectrophotometer.

Several values for one entry are separate records, joined by “and”; a condition that tells them apart may be missing. Equal values may be shown once.

In the data set on human dermal fibroblasts [1] (3 μM Cd, 24 hours, no EDA), `[Cl][Cd][Cl]` [Cd, cadmium chloride] gave a Survival % of 54.9% and a Survival x of 0.188 u abs. Moreover, in the data set on human dermal fibroblasts [1] (Cd(II) at 3 μM (FIG. 7)), the mortality result is “about 50%”.
For `O=[As]O` [sodium arsenite], in the data set on human dermal fibroblasts [2], the “Survival % (vs CC)” value is 42.0% and 54.6% and 46.4%; the Survival x is 0.209 u abs and 0.206 u abs and 0.334 u abs.
